Test system: HVA calcium channel
Format: cell-based, rat

COC(=O)C1=C(C)NC(C)=C(C(=O)OC)C1c1ccccc1[N+](=O)[O-] [Nifedipine, reference compound]
current after loading (pA): −734.31 pA
current before loading (pA): −1471.35 pA
inhibition rate (%) (10 μM): 50.09%

— patent US20180201650A1 (BGI SHENZHEN, priority 2014, published 2018)
